Assay results as given in ChEMBL document CHEMBL1127516, “Synthesis and structure-activity relationships of deazaxanthines: analogs of potent A1- and A2-adenosine receptor antagonists” (J Med Chem, 1994).

Assays:
[1] = target: T1, Adenosine receptor A1 (Rattus norvegicus) (UniProt P25099); assay: Percent inhibition of [3H]R-(phenylisopropyl)-adenosine (PIA) binding to A1 adenosine receptor; conditions: concentration not given here
T1 sequence (whole entry): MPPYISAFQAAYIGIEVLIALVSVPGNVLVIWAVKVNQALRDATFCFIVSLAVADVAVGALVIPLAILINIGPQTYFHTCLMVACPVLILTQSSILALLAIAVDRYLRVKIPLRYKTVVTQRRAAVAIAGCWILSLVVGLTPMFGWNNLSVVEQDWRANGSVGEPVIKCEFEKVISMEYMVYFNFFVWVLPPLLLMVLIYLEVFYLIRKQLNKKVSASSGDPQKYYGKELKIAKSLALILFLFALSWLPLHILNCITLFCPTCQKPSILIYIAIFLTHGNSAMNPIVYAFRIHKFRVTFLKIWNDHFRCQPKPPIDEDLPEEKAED

Adenosine A2 receptor = Adenosine A2 receptor (Rattus norvegicus, UniProt P29276+P30543); assay: Binding affinity to A2 adenosine receptor from rat striatal membrane in presence of [3H]5'-(N-ethylcarboximido)-adenosine
[2] = target: Adenosine A2 receptor (Rattus norvegicus) (UniProt P29276+P30543); assay: Percent inhibition of [3H]5'-(N-ethylcarboximido)-adenosine (NECA) binding to A2 adenosine receptor; type: protein assay; set-up: concentration or dose not given beside the values; conditions: concentration not given here
Adenosine receptor A1 = target: T2, Adenosine receptor A1 (Rattus norvegicus, UniProt P25099); assay: Binding affinity to A1 adenosine receptor from rat cortical membrane in presence of [3H]R-(phenylisopropyl)-adenosine
T2 sequence (P25099 whole entry): T1 sequence (whole entry)

| Structure (SMILES) | inhibition [1] [%] | Ki (Adenosine A2 receptor) [nM] | inhibition [2] [%] | Ki (Adenosine receptor A1) [nM] |
| --- | --- | --- | --- | --- |
| Cn1c(=O)c2c(cc(-c3cccc4ccccc34)n2O)n(C)c1=O | 47 | > 100000 | 38 | > 30000 |
| Cn1c(=O)c2c(cc(/C=C/c3ccccc3)n2O)n(C)c1=O | – | 1800 | – | 560 |
| Cn1c(=O)c2nc(-c3ccccc3)[nH]c2n(C)c1=O [8-PHENYL THEOPHYLLINE] | – | 830 | – | – |
| Cn1c(=O)c2[nH]c(-c3ccc4ccccc4c3)cc2n(C)c1=O | – | > 500 | 34 | 26 |
| Cn1c(=O)[nH]c2cc(-c3ccccc3)[nH]c2c1=O | – | 2000 | – | 97 |
| Cn1c(=O)c2c(cc(-c3ccc4ccccc4c3)n2C)n(C)c1=O | – | 1100 | – | 270 |
| Cn1c(=O)c2c(cc(-c3ccc4ccccc4c3)n2O)n(C)c1=O | – | 1000 | – | 220 |
| Cn1c(=O)c2c(nc(-c3ccccc3)n2C)n(C)c1=O | – | 25000 | – | – |
| Cn1c(=O)c2cc(-c3ccccc3)[nH]c2n(C)c1=O | – | 12000 | – | 3100 |
| Cn1c(=O)c2cc(-c3ccccc3)n(C)c2n(C)c1=O | – | 40000 | – | 11000 |
| Cn1c(=O)c2c(cc(/C=C/c3ccccc3)n2C)n(C)c1=O | – | 260 | – | 2600 |
| Cn1c(=O)c2c(cc(-c3ccccc3)n2C)n(C)c1=O | – | 14000 | – | – |
| Cn1c(=O)c2c(cc(-c3cccc4ccccc34)n2C)n(C)c1=O | – | > 30000 | 22 | 9200 |

More lines, now with the values ahead:

| inhibition [1] [%] | Ki (Adenosine A2 receptor) [nM] | inhibition [2] [%] | Ki (Adenosine receptor A1) [nM] | Structure (SMILES) |
| --- | --- | --- | --- | --- |
| 33 | > 30000 | 1.2 | > 30000 | Cn1c(=O)c2[nH]c(-c3cccc4ccccc34)cc2n(C)c1=O |
| – | 18000 | – | 1700 | CCCn1c(=O)[nH]c2cc[nH]c2c1=O |
| – | 510 | – | 47 | Cn1c(=O)c2[nH]c(-c3ccccc3)cc2n(C)c1=O |
| – | 5200 | – | – | CCCn1c(=O)c2c(cc(-c3ccccc3)n2C)n(CCC)c1=O |
| – | 15000 | – | – | CCCn1c(=O)c2c(nc(-c3ccccc3)n2C)n(CCC)c1=O |
| – | 450 | – | 13 | CCCn1c(=O)c2[nH]c(-c3ccccc3)cc2n(CCC)c1=O |
| – | 12000 | – | 5400 | Cn1c(=O)c2[nH]ccc2n(C)c1=O |
| – | 72000 | – | 32000 | Cn1c(=O)c2c(ccn2C)n(C)c1=O |
| – | > 250000 | 39 | 43000 | Cn1c(=O)c2cc[nH]c2n(C)c1=O |
| – | 10000 | – | – | CCCn1c(=O)c2c(ncn2C)n(CCC)c1=O |
| – | 5100 | – | 440 | CCCn1c(=O)c2[nH]ccc2n(CCC)c1=O |
| – | 34000 | – | 2900 | Cn1c(=O)[nH]c2cc[nH]c2c1=O |
| – | 16000 | – | 130 | CCCn1c(=O)c2[nH]c(N(C)C)cc2n(CCC)c1=O |
| – | 13000 | – | 2300 | CCCn1c(=O)c2c(ccn2C)n(CCC)c1=O |
| – | 640 | – | 165 | Cn1c(=O)c2[nH]c(/C=C/c3ccccc3)cc2n(C)c1=O |
| – | 1200 | – | 39 | CCCn1c(=O)[nH]c2cc(-c3ccccc3)[nH]c2c1=O |
